# pIC50: −log10 of the molar value.
# Tests used:
# SK-MEL [1] = test: Compound was tested for its cytotoxicity against human malignant melanoma cell line SK-MEL; type: functional, cell-based
# [2] = In vitro therapeutic index was determined. (Therapeutic index = IC50 cytotoxicity/IC50 complement inhibition); type: functional
# Homo sapiens [3] = organism: Homo sapiens; test: The compound was tested in vitro for its inhibition of the classical pathway activation of human complement; type: functional
# SK-MEL [4] = test: Compound was tested for its cytotoxicity against human malignant melanoma cell line SK-MEL; NA = Not active; type: functional, cell-based
# Homo sapiens [5] = organism: Homo sapiens; test: The compound was tested in vitro for its inhibition of the classical pathway activation of human complement; Not active; type: functional
# [6] = The compound was tested for its apoptotic activity; No DNA migration observed; type: functional
# [7] = The compound was tested for its apoptotic activity; no DNA migration observed; type: functional
pIC50 (Homo sapiens [3]),IC50 (Homo sapiens [5]),SMILES,pIC50 (SK-MEL [1]),TI [2],IC50 (SK-MEL [4]),Apoptotic activity [6],Apoptotic activity [7]
3.84,,CC1(C)CC[C@]2(C(=O)NCC(=O)O)CC[C@]3(C)C(=CC[C@@H]4[C@@]5(C)CC[C@H](O)C(C)(C)[C@@H]5CC[C@]43C)[C@@H]2C1,3.94,0.78,,No DNA migration observed,
,Not Active,CC1(C)CC[C@]2(CO)CC[C@]3(C)C(=CCC4[C@@]5(C)CC[C@H](O)C(C)(C)C5CC[C@]43C)[C@@H]2C1 (some centres undefined),3.98,,,No DNA migration observed,
,Not Active,COC(=O)[C@]12CCC(C)(C)C[C@H]1C1=CC[C@@H]3[C@@]4(C)CC[C@H](O)C(C)(C)[C@@H]4CC[C@@]3(C)[C@]1(C)CC2 [METHYL OLEANOLATE],3.99,,,No DNA migration observed,
4.14,,CC1(C)CC[C@]2(C(=O)O)CC[C@]3(C)C(=CC[C@@H]4[C@@]5(C)CC[C@H](O)C(C)(C)[C@@H]5CC[C@]43C)[C@@H]2C1 [OLEANOLIC_ACID],3.95,1.55,,,no DNA migration observed
,Not Active,CC(=O)O[C@H]1CC[C@@]2(C)C(CC[C@]3(C)C2CC=C2[C@@H]4CC(C)(C)CC[C@]4(C(N)=O)CC[C@]23C)C1(C)C (some centres undefined),4.15,,,No DNA migration observed,
,Not Active,CC1(C)CC[C@]2(C(N)=O)CC[C@]3(C)C(=CCC4[C@@]5(C)CC[C@H](O)C(C)(C)C5CC[C@]43C)[C@@H]2C1 (some centres undefined),,,Not Active,No DNA migration observed,
,Not Active,CC(=O)O[C@H]1CC[C@]2(C)[C@H]3CC=C4[C@@H]5CC(C)(C)CC[C@]5(C(=O)O)CC[C@@]4(C)[C@]3(C)CC[C@H]2C1(C)C [ACETYL OLEANOLIC ACID],,,Not Active,,no DNA migration observed

# Further lines, the compound ahead of its results:
SMILES,pIC50 (Homo sapiens [3]),IC50 (Homo sapiens [5]),pIC50 (SK-MEL [1]),TI [2],IC50 (SK-MEL [4]),Apoptotic activity [6],Apoptotic activity [7]
CC1(C)CC[C@]2(C(=O)O)CC[C@]3(C)C(=CCC4[C@@]5(C)CC[C@H](OC(=O)CC(C)(C)C(=O)O)C(C)(C)C5CC[C@]43C)[C@@H]2C1 (some centres undefined),3.97,,4.11,0.71,,,
CC1(C)CC[C@]2(C(=O)NCCCCCCCCCCC(=O)O)CC[C@]3(C)C(=CCC4[C@@]5(C)CC[C@H](O)C(C)(C)C5CC[C@]43C)[C@@H]2C1 (some centres undefined),,Not Active,,,Not Active,No DNA migration observed,
CC(C)(CC(=O)O)CC(=O)O[C@H]1CC[C@@]2(C)C(CC[C@]3(C)C2CC=C2[C@@H]4CC(C)(C)CC[C@]4(C(=O)O)CC[C@]23C)C1(C)C (some centres undefined),3.99,,4.07,0.83,,,
CC1(C)CC[C@]2(C(=O)O)CC[C@]3(C)C(=CCC4[C@@]5(C)CC[C@H](OC(=O)COCC(=O)O)C(C)(C)C5CC[C@]43C)[C@@H]2C1 (some centres undefined),4.50,,4.03,2.96,,,
CC1(C)CC[C@]2(C(=O)NCCCCC(=O)O)CC[C@]3(C)C(=CCC4[C@@]5(C)CC[C@H](O)C(C)(C)C5CC[C@]43C)[C@@H]2C1 (some centres undefined),4.50,,3.90,3.99,,,
CC1(C)CC[C@]2(C(=O)O)CC[C@]3(C)C(=CC(=O)C4[C@@]5(C)CC[C@H](O)C(C)(C)C5CC[C@]43C)[C@@H]2C1 (some centres undefined),3.63,,3.88,0.56,,,
CC(=O)O[C@H]1CC[C@@]2(C)C(CC[C@]3(C)C2C(=O)C=C2[C@@H]4CC(C)(C)CC[C@]4(C(=O)O)CC[C@]23C)C1(C)C (some centres undefined),,Not Active,,,Not Active,No DNA migration observed,
C=C(C)[C@@H]1CC[C@]2(C(=O)O)CC[C@]3(C)[C@H](CC[C@@H]4[C@@]5(C)CC[C@H](O)C(C)(C)[C@@H]5CC[C@]43C)[C@@H]12 [BETULINIC ACID],3.24,,4.46,0.06,,,
CC1(C)CC[C@]2(C(=O)O)CC[C@]3(C)C(=CC[C@@H]4[C@@]5(C)CCC(=O)C(C)(C)[C@@H]5CC[C@]43C)[C@@H]2C1 [OLEANONIC ACID],,Not Active,4.51,,,,
